Source: paper PMC7248877, “Synthesis and Spectral Identification of Three Schiff Bases with a 2-(Piperazin-1-yl)-N-(thiophen-2-yl methylene)ethanamine Moiety Acting as Novel Pancreatic Lipase Inhibitors: Thermal, DFT, Antioxidant, Antibacterial, and Molecular Docking Investigations” (Molecules, 2020)

Target: T1, porcine pancreatic lipase (Sus scrofa, UniProt P00591)
T1 construct: gene PNLIP
T1 sequence (P00591 1-450): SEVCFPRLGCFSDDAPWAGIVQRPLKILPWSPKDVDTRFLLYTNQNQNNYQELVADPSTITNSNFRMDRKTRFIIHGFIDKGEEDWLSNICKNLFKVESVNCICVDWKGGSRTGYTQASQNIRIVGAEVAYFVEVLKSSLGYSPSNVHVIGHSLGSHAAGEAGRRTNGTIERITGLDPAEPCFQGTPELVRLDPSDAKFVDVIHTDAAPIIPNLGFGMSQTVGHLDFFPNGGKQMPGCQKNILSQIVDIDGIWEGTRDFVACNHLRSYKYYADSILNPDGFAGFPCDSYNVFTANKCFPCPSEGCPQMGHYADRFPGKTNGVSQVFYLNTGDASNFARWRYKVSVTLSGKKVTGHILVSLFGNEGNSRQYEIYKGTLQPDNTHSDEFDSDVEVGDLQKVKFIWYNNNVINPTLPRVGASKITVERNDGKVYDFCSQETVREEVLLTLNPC
Experiment: p-nitrophenyl butyrate hydrolysis assay, absorbance at […] nm
Format: biochemical

Row | Compound | IC50
1 | Brc1ccc(C=NCCN2CCNCC2)s1 [L3, N-((5-Bromothiophen-2-yl)methylene)-2-(piperazin-1-yl)ethanamine] | 524 µM
2 | C(=N\CCN1CCNCC1)/c1cccs1 [L2, 2-(Piperazin-1-yl)-N-(thiophen-2-ylmethylene)ethanamine] | 2240 µM
3 | CC(=NCCN1CCNCC1)c1ccc(Cl)s1 [L1, N-(1-(5-Chlorothiophen-2-yl)ethylidene)-2-(piperazin-1-yl)ethanamine] | 1160 µM
